The structures appear in SMILES notation. ≈ marks a conversion by molar mass, not a printed value. Where a name gives a salt, the structure may show the parent alone.

A short description of series [1]: Cytotoxicity against CEF after 24 hrs by microscopic analysis. The conditions noted are these: chicken; for MCC at 24 h: CEF cells; for MCC: 24 h. On the set-up: species or system Gallus gallus.
For series [2], the system named is Newcastle disease virus. Briefly: Antiviral activity against Newcastle disease virus Miyadera infected in CEF assessed as suppression of <= 1% hemagglutinating activity by tube assay. The conditions noted are these: avian paramyxovirus 1, Miyadera. The format is functional.
For series [3], the system named is Newcastle disease virus. Briefly: Ratio of amantadine hydrochloride MIC to compound MIC for Newcastle disease virus Miyadera infected in CEF. Format: functional, avian paramyxovirus 1.
Series [4] can be described thus: Ratio of MCC for CEF to MIC for Newcastle disease virus Miyadera infected in CEF.

`O[C@@H]1C2CCCC3C[C@@H]1CC[C@@H]32` (relative stereo) displayed an MCC at 24 h in series [1] of 750 µM. For the same compound, the MIC in series [2] was found to be 750 µM (≈ 125 µg/mL).

As to `O=C(Cl)C12CCCC3CC(CCC31)C2` (stereo not given), the MCC entry in series [1] was “ND(Unstable)”.

On to `OC12CCCC3CC(CCC31)C2` (stereo not given), for which the MCC at 24 h in series [1] is 6000 µM. In series [2], the MIC came out at 3000 µM (≈ 499 µg/mL).

`O[C@H]1C2CCCC3C[C@H]1CC[C@H]32` (relative stereo) gave an MCC at 24 h in series [1] of 1800 µM. Also, the MIC in series [2] amounted to 900 µM (≈ 150 µg/mL).

Compound `CCCCNC(=O)C12CCCC3CC(CCC31)C2` (stereo not given) yielded an MCC at 24 h in series [1] of 300 µM. The MIC in series [2] was 625 µM (≈ 156 µg/mL).

Compound `O=C1C2CCC3C(CCCC13)C2` (stereo not given) displayed an MCC at 24 h in series [1] of 2400 µM. Also, the MIC in series [2] came out at 1200 µM (≈ 197 µg/mL).

As to `N#CC12CCCC3CC(CCC31)C2` (stereo not given), the MCC at 24 h in series [1] was determined as 850 µM. For the same compound, in series [2], the MIC came to 570 µM (≈ 99.9 µg/mL).

In series [1], `O=C(NC1CCCCC1)C12CCCC3CC(CCC31)C2` (stereo not given) showed an MCC at 24 h of 2250 µM. The MIC in series [2] was 2250 µM (≈ 620 µg/mL).

In turn, `CC(=O)NC12CCCC3CC(CCC31)C2` (stereo not given) had an MCC at 24 h in series [1] of 3000 µM. Moreover, in series [2], the MIC is 750 µM (≈ 155 µg/mL).

In turn, `O=C(O)C12CCCC3CC(CCC31)C2` (stereo not given) registered an MCC at 24 h in series [1] of 10000 µM. The MIC in series [2] worked out at 10000 µM (≈ 1940 µg/mL).

In series [1], `NC12CC3CC(CC(C3)C1)C2` [AMANTADINE HYDROCHLORIDE] displayed an MCC at 24 h of 1300 µM. The MIC in series [2] turned out to be 1300 µM.

As to `BrC12CCCC3CC(CCC31)C2` (stereo not given), the MCC result in series [1] is reported as “ND(Unstable)”.

In series [1], `NC(=O)C12CCCC3CC(CCC31)C2` (stereo not given) yielded an MCC at 24 h of 5200 µM. Also, the MIC in series [2] amounted to 2600 µM (≈ 503 µg/mL).

Consider `COC(=O)C12CCCC3CC(CCC31)C2` (stereo not given), for which the MCC at 24 h in series [1] came to 80 µM. The MIC in series [2] came to 80 µM (≈ 16.7 µg/mL).

In series [1], `OCC12CCCC3CC(CCC31)C2` (stereo not given) returned an MCC at 24 h of 870 µM. Further, the MIC in series [2] amounted to 440 µM (≈ 79.3 µg/mL).

The compound `C1CC2CC3CCC2C(C1)C3` came in with an MCC at 24 h in series [1] of 670 µM. For the same compound, the MIC in series [2] was 670 µM (≈ 101 µg/mL).

Consider `CCCCCCCCOC(=O)C12CCCC3CC(CCC31)C2` (stereo not given), for which the MCC at 24 h in series [1] came to 490 µM. Besides, the MIC in series [2] came out at 330 µM (≈ 101 µg/mL).

Regarding `Cl.NC12CCCC3CC(CCC31)C2` (stereo not given), the figures for the Ratio in series [3] and in series [4] were 30 and 2, respectively. Also, the MCC at 24 h in series [1] stood at 200 µM. The MIC in series [2] worked out at 25 µM.

For the compound `C1=C2CCCC3CC1CCC23` (stereo not given), the MCC result in series [1] is reported as “ND(Unstable)”.

In turn, `O=C(NC12CC3CC(CC(C3)C1)C2)C12CCCC3CC(CCC31)C2` (stereo not given) gave an MCC at 24 h in series [1] of 2000 µM. Besides, the MIC in series [2] is 7500 µM (≈ 2460 µg/mL).

As for `Cl.NCC12CCCC3CC(CCC31)C2` (stereo not given), the Ratio came to 30 in series [3] and 2 in series [4]. The same compound returned an MCC at 24 h in series [1] of 90 µM. Further, the MIC in series [2] came out at 45 µM.

With `CNC(=O)C12CCCC3CC(CCC31)C2` (stereo not given), the MCC at 24 h in series [1] was 750 µM. For the same compound, the MIC in series [2] is 3000 µM (≈ 622 µg/mL).

Values taken from ChEMBL document CHEMBL3271944, “Biologically active polycycloalkanes. 2. Antiviral 4-homoisotwistane derivatives” (J Med Chem, 1976).
